Data on four sequences can be found in US20240384268A1, “Oligonucleotides” (Hudson Institute of Medical Research, priority 2021, published 2024).

The first data set has as its target T1, TLR8 (Homo sapiens, UniProt Q9NR97).
T1 sequence (Q9NR97 27-1041): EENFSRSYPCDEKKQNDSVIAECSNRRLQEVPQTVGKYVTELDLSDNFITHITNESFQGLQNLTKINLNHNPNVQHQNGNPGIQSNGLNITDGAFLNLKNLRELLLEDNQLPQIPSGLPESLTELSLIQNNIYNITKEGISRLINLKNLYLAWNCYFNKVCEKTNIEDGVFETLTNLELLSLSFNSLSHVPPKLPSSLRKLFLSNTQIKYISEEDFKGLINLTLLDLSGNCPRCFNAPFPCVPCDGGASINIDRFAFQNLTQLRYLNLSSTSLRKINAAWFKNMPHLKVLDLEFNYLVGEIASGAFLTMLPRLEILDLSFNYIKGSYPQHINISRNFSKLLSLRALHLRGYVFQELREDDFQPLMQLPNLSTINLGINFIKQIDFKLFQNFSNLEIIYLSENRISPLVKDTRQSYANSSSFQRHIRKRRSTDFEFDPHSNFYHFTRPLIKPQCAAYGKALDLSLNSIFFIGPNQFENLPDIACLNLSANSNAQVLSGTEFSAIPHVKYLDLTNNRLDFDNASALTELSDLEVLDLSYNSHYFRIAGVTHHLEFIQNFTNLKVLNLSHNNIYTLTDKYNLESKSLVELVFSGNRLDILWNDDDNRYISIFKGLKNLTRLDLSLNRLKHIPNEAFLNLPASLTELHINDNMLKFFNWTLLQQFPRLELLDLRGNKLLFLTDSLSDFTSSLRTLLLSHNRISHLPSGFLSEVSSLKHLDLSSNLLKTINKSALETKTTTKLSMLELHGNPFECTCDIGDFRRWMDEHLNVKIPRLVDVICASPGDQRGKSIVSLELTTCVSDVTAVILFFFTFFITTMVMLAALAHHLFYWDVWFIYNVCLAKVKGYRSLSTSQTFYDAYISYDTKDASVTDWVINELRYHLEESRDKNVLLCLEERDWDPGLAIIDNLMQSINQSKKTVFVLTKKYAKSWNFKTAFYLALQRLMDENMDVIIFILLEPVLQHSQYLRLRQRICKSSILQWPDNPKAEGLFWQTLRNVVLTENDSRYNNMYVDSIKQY
Put plainly: HEK-TLR8 NF-κB-luciferase reporter, R848 or Motolimod stimulation (potentiation or inhibition). The class given is cell-based. On the set-up: expressed in transfected cells; host or cells: 293XLhTLR8 (HEK293). The conditions noted are these: MOE-modified ASO at 100 nM; averaged NF-κB-Luciferase relative to R848 condition (fold increase). (In general: In a reporter assay the amount or activity of a reporter protein is the signal.)
For the sequence “TTCTGCAGCTTCCTTGTCCT (antisense; 2'-MOE modified, pattern not given here) [CTNN2B-2136 MOE]”, the “TLR8 100 nM” value was 2.049.

Turning to “TTGCACACTTCGTACCCAAA (antisense; 2'-MOE modified, pattern not given here) [CAMSAP1-4915 MOE]”, the “TLR8 100 nM” value was found to be 1.555.

On to “TTGCCATGCTGGCTCGGACT (antisense; 2'-MOE modified, pattern not given here) [CAMSAP1-2584 MOE]”, for which the “TLR8 100 nM” value is 0.881.

For “TTGGCTCGGCTTGCCTACTT (antisense; 2'-MOE modified, pattern not given here) [CAMSAP1-5594 MOE]”, the “TLR8 100 nM” value came out at 1.096.

The same data set, now with this note: MOE-modified ASO at 500 nM; averaged NF-κB-Luciferase relative to R848 condition (fold increase).
As for “TTCTGCAGCTTCCTTGTCCT (antisense; 2'-MOE modified, pattern not given here) [CTNN2B-2136 MOE]”, the “TLR8 500 nM” value came out at 2.408.

As for “TTGCACACTTCGTACCCAAA (antisense; 2'-MOE modified, pattern not given here) [CAMSAP1-4915 MOE]”, the “TLR8 500 nM” value worked out at 1.972.

In the case of “TTGCCATGCTGGCTCGGACT (antisense; 2'-MOE modified, pattern not given here) [CAMSAP1-2584 MOE]”, the “TLR8 500 nM” value is 0.572.

On to “TTGGCTCGGCTTGCCTACTT (antisense; 2'-MOE modified, pattern not given here) [CAMSAP1-5594 MOE]”, for which the “TLR8 500 nM” value was determined as 0.813.
